Measured values reported in ChEMBL document CHEMBL5143725, “Optimization of TEAD P-Site Binding Fragment Hit into In Vivo Active Lead MSC-4106” (J Med Chem, 2022).

tested on: not listed separately; assay: Inhibition of YAP/TAZ-TEAD interaction in human SK-HEP1 cells incubated for 24 hrs by luciferase reporter gene assay; format: cell-based; settings: not given

IC50 [nM] | SMILES
30 | C[C@H](NC(=O)c1ccc2c(-c3ccc(C(F)(F)F)cc3)cccc2c1)c1cccc(N)n1
> 30 | O=C(O)c1ccc2c(cnn2C2CCCC2)c1
46 | Cn1cc2c3cc(C(=O)O)ccc3n(-c3cccc(C(F)(F)F)c3)c2n1
4 | C#CCn1cc2c3cc(C(=O)O)ccc3n(-c3ccc(C(F)(F)F)cc3)c2n1
> 30000 | Cn1cc2c(n1)[nH]c1ccc(C(=O)O)cc12
14 | O=C(O)c1ccc2c(cnn2C2CCC(F)(F)CC2)c1
6 | Cn1cc2c3cc(C(=O)O)cnc3n(-c3ccc(C(F)(F)F)cc3)c2n1
25 | C[C@H](NC(=O)c1ccc2c(-c3ccc(C(F)(F)F)cc3)cccc2c1)c1ccccn1
36 | Cc1nccnc1-c1nn2c(=O)cc(-c3ccc(C4CCCCC4)cc3)[nH]c2c1C(=O)N1CC(CF)C1
48 | Cn1ncc2c1c1cc(C(=O)O)ccc1n2-c1ccc(C(F)(F)F)cc1
5.2 | O=C(O)c1cnc2c(cnn2C2CCCCC2)c1
52 | Cn1cc2c3cc(C(=O)O)ccc3n(CC3CC(C(F)(F)F)C3)c2n1 (configuration not stated)
83 | Cn1cc2c3cc(C(=O)O)ccc3n(CCC(C)(C)C(F)(F)F)c2n1
900 | C[C@@H](NC(=O)c1ccc2c(-c3ccc(C(F)(F)F)cc3)cccc2c1)c1cccc(N)n1
33 | Cn1cc2c3cc(C(=O)O)ccc3n(C34CC(C(F)(F)F)(C3)C4)c2n1
138 | O=C(O)c1ccc2c(c1)c1c[nH]nc1n2-c1ccc(C(F)(F)F)cc1
33 | Cn1cc2c3cc(C(=O)O)ccc3n(C3CC4(C3)CC(F)(F)C4)c2n1
15 | O=c1[nH]c(-c2nccnc2Nc2ccc(C(F)(F)F)cc2)no1
3 | CCn1cc2c3cc(C(=O)O)ccc3n(-c3ccc(C(F)(F)F)cc3)c2n1
39 | Cn1cc2c3cc(C(=O)O)ncc3n(-c3ccc(C(F)(F)F)cc3)c2n1
4 | Cn1cc2c3cc(C(=O)O)ccc3n(-c3ccc(C(F)(F)F)c(F)c3)c2n1
28 | O=C(O)c1cnc2c(cnn2C2CCC(F)(F)CC2)c1
16 | Cn1cc2c3nc(C(=O)O)ccc3n(-c3ccc(C(F)(F)F)cc3)c2n1

tested on: not listed separately; assay: Solubility of the compound in PBS buffer at pH 7.4; format: physicochemical; settings: not given

solubility [µg/mL] | SMILES
> 40 | Cn1cc2c3cc(C(=O)O)ccc3n(CC3CC(C(F)(F)F)C3)c2n1 (configuration not stated)
> 40 | Cn1cc2c3cc(C(=O)O)ccc3n(CCC(C)(C)C(F)(F)F)c2n1

tested on: not listed separately; assay: Solubility of the compound in SGF buffer at pH 1.2; format: physicochemical; settings: not given

solubility [µg/mL] | SMILES
< 1 | Cn1cc2c3cc(C(=O)O)ccc3n(CC3CC(C(F)(F)F)C3)c2n1 (configuration not stated)
< 1 | Cn1cc2c3cc(C(=O)O)ccc3n(CCC(C)(C)C(F)(F)F)c2n1

tested on: not listed separately; assay: Microsomal stability in human microsomes measured per 10^6 cells; format: ADME, Microsome; settings: not given

Stability [µL/min] | SMILES
< 10 | Cn1cc2c3cc(C(=O)O)ccc3n(CC3CC(C(F)(F)F)C3)c2n1 (configuration not stated)
< 10 | Cn1cc2c3cc(C(=O)O)ccc3n(CCC(C)(C)C(F)(F)F)c2n1
< 10 | Cn1cc2c3cc(C(=O)O)ccc3n(C34CC(C(F)(F)F)(C3)C4)c2n1
< 10 | Cn1cc2c3cc(C(=O)O)ccc3n(C3CC4(C3)CC(F)(F)C4)c2n1

tested on: not listed separately; assay: Microsomal stability in mouse microsomes measured per 10^6 cells; format: ADME, Microsome; settings: not given

Stability [µL/min] | SMILES
< 10 | Cn1cc2c3cc(C(=O)O)ccc3n(CC3CC(C(F)(F)F)C3)c2n1 (configuration not stated)
< 10 | Cn1cc2c3cc(C(=O)O)ccc3n(CCC(C)(C)C(F)(F)F)c2n1
< 10 | Cn1cc2c3cc(C(=O)O)ccc3n(C34CC(C(F)(F)F)(C3)C4)c2n1
< 10 | Cn1cc2c3cc(C(=O)O)ccc3n(C3CC4(C3)CC(F)(F)C4)c2n1

tested on: not listed separately; assay: Microsomal stability in human hepatocyte measured per 10^6 cells; format: ADME, cell-based; settings: hepatocytes

Stability [µL/min] | SMILES
> 20 | C#CCn1cc2c3cc(C(=O)O)ccc3n(-c3ccc(C(F)(F)F)cc3)c2n1

tested on: not listed separately; assay: Microsomal stability in mouse hepatocyte measured per 10^6 cells; format: ADME, cell-based; settings: hepatocytes

Stability [µL/min] | SMILES
> 20 | C#CCn1cc2c3cc(C(=O)O)ccc3n(-c3ccc(C(F)(F)F)cc3)c2n1

tested on: NCI-H226; assay: Cytotoxicity against human NCI-H226 cells assessed as cell viability at 10 uM measured for 7 days by celltiter-glo assay; format: functional, cell-based; settings: NCI-H226, 168 h

SMILES | IC50 [nM]
C[C@H](NC(=O)c1ccc2c(-c3ccc(C(F)(F)F)cc3)cccc2c1)c1cccc(N)n1 | 20
C[C@H](NC(=O)c1ccc2c(-c3ccc(C(F)(F)F)cc3)cccc2c1)c1ccccn1 | 42
Cc1nccnc1-c1nn2c(=O)cc(-c3ccc(C4CCCCC4)cc3)[nH]c2c1C(=O)N1CC(CF)C1 | 82
C[C@@H](NC(=O)c1ccc2c(-c3ccc(C(F)(F)F)cc3)cccc2c1)c1cccc(N)n1 | 661
O=c1[nH]c(-c2nccnc2Nc2ccc(C(F)(F)F)cc2)no1 | 110

target: T1, Transcriptional enhancer factor TEF-1 (Homo sapiens, UniProt P28347); assay: Binding affinity to human TEAD1 (209 to 426 residues) expressed in Escherichia coli BL21 Star (DE3) assessed as change in melting temperature incubated for 2 hrs by measuring tryptophane fluorescence by Nano Differential scanning fluorometry; settings: not given
T1 sequence (P28347 whole entry, the tested form may be a part): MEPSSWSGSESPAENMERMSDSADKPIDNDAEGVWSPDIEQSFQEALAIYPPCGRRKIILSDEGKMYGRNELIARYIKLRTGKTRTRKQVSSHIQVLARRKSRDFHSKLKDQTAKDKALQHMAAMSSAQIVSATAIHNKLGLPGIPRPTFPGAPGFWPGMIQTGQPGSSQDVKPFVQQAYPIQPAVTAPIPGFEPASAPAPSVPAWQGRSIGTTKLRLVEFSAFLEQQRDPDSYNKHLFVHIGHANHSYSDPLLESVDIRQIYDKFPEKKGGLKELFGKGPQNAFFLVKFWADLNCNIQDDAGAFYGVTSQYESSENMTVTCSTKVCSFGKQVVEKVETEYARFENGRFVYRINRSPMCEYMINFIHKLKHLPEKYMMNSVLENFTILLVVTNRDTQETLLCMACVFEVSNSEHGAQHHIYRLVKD

ΔTm [°C] | SMILES
14.5 | C[C@H](NC(=O)c1ccc2c(-c3ccc(C(F)(F)F)cc3)cccc2c1)c1cccc(N)n1
10.8 | C[C@H](NC(=O)c1ccc2c(-c3ccc(C(F)(F)F)cc3)cccc2c1)c1ccccn1
5.5 | C[C@@H](NC(=O)c1ccc2c(-c3ccc(C(F)(F)F)cc3)cccc2c1)c1cccc(N)n1
11.2 | O=c1[nH]c(-c2nccnc2Nc2ccc(C(F)(F)F)cc2)no1

target: T2, Transcriptional enhancer factor TEF-4 (Homo sapiens, UniProt Q15562); assay: Binding affinity to human TEAD2 (217 to 447 residues) expressed in Escherichia coli BL21 Star (DE3) assessed as change in melting temperature incubated for 2 hrs by measuring tryptophane fluorescence by Nano Differential scanning fluorometry; settings: not given
T2 sequence (Q15562 whole entry, the tested form may be a part): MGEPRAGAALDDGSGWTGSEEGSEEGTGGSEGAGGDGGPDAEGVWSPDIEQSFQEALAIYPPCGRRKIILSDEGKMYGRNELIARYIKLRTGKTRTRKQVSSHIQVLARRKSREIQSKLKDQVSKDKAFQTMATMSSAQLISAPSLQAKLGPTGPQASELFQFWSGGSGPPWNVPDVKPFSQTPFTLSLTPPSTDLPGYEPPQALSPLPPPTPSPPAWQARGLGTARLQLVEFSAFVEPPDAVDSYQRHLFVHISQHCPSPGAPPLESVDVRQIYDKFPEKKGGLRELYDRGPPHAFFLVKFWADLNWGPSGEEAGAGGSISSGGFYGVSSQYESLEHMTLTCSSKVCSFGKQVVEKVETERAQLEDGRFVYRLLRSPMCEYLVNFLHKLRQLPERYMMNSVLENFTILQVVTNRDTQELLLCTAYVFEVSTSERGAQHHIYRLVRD

ΔTm [°C] | SMILES
13.4 | C[C@H](NC(=O)c1ccc2c(-c3ccc(C(F)(F)F)cc3)cccc2c1)c1cccc(N)n1
9.8 | C[C@H](NC(=O)c1ccc2c(-c3ccc(C(F)(F)F)cc3)cccc2c1)c1ccccn1
3.8 | C[C@@H](NC(=O)c1ccc2c(-c3ccc(C(F)(F)F)cc3)cccc2c1)c1cccc(N)n1
12.3 | O=c1[nH]c(-c2nccnc2Nc2ccc(C(F)(F)F)cc2)no1

target: T3, Transcriptional enhancer factor TEF-5 (Homo sapiens, UniProt Q99594); assay: Binding affinity to human TEAD3 (216 to 435 residues) expressed in Escherichia coli BL21 Star (DE3) assessed as change in melting temperature incubated for 2 hrs by measuring tryptophane fluorescence by Nano Differential scanning fluorometry; settings: not given
T3 sequence (Q99594 whole entry, the tested form may be a part): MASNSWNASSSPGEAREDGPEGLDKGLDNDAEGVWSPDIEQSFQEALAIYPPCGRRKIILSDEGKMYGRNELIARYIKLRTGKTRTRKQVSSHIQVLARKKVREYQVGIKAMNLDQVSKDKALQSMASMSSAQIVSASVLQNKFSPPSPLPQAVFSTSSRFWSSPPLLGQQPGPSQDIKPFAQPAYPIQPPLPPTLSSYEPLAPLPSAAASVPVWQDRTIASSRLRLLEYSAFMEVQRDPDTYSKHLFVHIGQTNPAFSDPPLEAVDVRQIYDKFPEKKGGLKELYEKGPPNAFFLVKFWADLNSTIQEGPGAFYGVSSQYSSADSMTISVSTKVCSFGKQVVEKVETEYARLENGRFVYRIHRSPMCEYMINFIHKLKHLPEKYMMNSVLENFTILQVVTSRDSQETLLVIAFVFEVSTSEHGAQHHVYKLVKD

ΔTm [°C] | SMILES
13.4 | C[C@H](NC(=O)c1ccc2c(-c3ccc(C(F)(F)F)cc3)cccc2c1)c1cccc(N)n1
10.1 | C[C@H](NC(=O)c1ccc2c(-c3ccc(C(F)(F)F)cc3)cccc2c1)c1ccccn1
5.9 | C[C@@H](NC(=O)c1ccc2c(-c3ccc(C(F)(F)F)cc3)cccc2c1)c1cccc(N)n1
8.2 | O=c1[nH]c(-c2nccnc2Nc2ccc(C(F)(F)F)cc2)no1

target: T4, Transcriptional enhancer factor TEF-3 (Homo sapiens, UniProt Q15561); assay: Binding affinity to human TEAD4 (217 to 434 residues) expressed in Escherichia coli BL21 Star (DE3) assessed as change in melting temperature incubated for 2 hr by measuring tryptophane fluorescence by Nano Differential scanning fluorometry; settings: not given
T4 sequence (Q15561 whole entry, the tested form may be a part): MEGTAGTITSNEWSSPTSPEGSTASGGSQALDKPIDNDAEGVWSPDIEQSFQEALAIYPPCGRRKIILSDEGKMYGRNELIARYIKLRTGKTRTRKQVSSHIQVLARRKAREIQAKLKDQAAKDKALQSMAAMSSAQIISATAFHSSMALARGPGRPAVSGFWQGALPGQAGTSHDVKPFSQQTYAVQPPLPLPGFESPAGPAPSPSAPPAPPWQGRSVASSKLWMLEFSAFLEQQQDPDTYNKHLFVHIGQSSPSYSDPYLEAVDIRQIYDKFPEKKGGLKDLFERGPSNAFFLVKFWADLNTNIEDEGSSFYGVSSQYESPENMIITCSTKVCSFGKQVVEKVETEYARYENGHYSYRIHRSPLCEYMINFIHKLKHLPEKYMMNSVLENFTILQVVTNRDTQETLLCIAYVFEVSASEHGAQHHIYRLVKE

ΔTm [°C] | SMILES
1.3 | C[C@H](NC(=O)c1ccc2c(-c3ccc(C(F)(F)F)cc3)cccc2c1)c1cccc(N)n1
-2.25 | C[C@H](NC(=O)c1ccc2c(-c3ccc(C(F)(F)F)cc3)cccc2c1)c1ccccn1
14.9 | Cc1nccnc1-c1nn2c(=O)cc(-c3ccc(C4CCCCC4)cc3)[nH]c2c1C(=O)N1CC(CF)C1
1.3 | C[C@@H](NC(=O)c1ccc2c(-c3ccc(C(F)(F)F)cc3)cccc2c1)c1cccc(N)n1
9.8 | O=c1[nH]c(-c2nccnc2Nc2ccc(C(F)(F)F)cc2)no1

target: T1, Transcriptional enhancer factor TEF-1; assay: Inhibition of pSF-CMV-P-FLAG tagged human TEAD1 palmitoylation transfected in HEK293 cells at 10 uM incubated for 6 hrs by Western blot analysis relative to control; format: cell-based; settings: not given

inhibition [%] | SMILES
92 | C[C@H](NC(=O)c1ccc2c(-c3ccc(C(F)(F)F)cc3)cccc2c1)c1cccc(N)n1
93 | C[C@H](NC(=O)c1ccc2c(-c3ccc(C(F)(F)F)cc3)cccc2c1)c1ccccn1
84 | Cc1nccnc1-c1nn2c(=O)cc(-c3ccc(C4CCCCC4)cc3)[nH]c2c1C(=O)N1CC(CF)C1
83 | C[C@@H](NC(=O)c1ccc2c(-c3ccc(C(F)(F)F)cc3)cccc2c1)c1cccc(N)n1
97 | O=c1[nH]c(-c2nccnc2Nc2ccc(C(F)(F)F)cc2)no1

target: T2, Transcriptional enhancer factor TEF-4; assay: Inhibition of pSF-CMV-P-FLAG tagged human TEAD2 palmitoylation transfected in HEK293 cells at 10 uM incubated for 6 hrs by Western blot analysis relative to control; format: cell-based; settings: not given

inhibition [%] | SMILES
87 | C[C@H](NC(=O)c1ccc2c(-c3ccc(C(F)(F)F)cc3)cccc2c1)c1cccc(N)n1
87 | C[C@H](NC(=O)c1ccc2c(-c3ccc(C(F)(F)F)cc3)cccc2c1)c1ccccn1
86 | Cc1nccnc1-c1nn2c(=O)cc(-c3ccc(C4CCCCC4)cc3)[nH]c2c1C(=O)N1CC(CF)C1
51 | C[C@@H](NC(=O)c1ccc2c(-c3ccc(C(F)(F)F)cc3)cccc2c1)c1cccc(N)n1
86 | O=c1[nH]c(-c2nccnc2Nc2ccc(C(F)(F)F)cc2)no1

target: T3, Transcriptional enhancer factor TEF-5; assay: Inhibition of pSF-CMV-P-FLAG tagged human TEAD3 palmitoylation transfected in HEK293 cells at 10 uM incubated for 6 hrs by Western blot analysis relative to control; format: cell-based; settings: not given

inhibition [%] | SMILES
91 | C[C@H](NC(=O)c1ccc2c(-c3ccc(C(F)(F)F)cc3)cccc2c1)c1cccc(N)n1
93 | C[C@H](NC(=O)c1ccc2c(-c3ccc(C(F)(F)F)cc3)cccc2c1)c1ccccn1
91 | Cc1nccnc1-c1nn2c(=O)cc(-c3ccc(C4CCCCC4)cc3)[nH]c2c1C(=O)N1CC(CF)C1
91 | C[C@@H](NC(=O)c1ccc2c(-c3ccc(C(F)(F)F)cc3)cccc2c1)c1cccc(N)n1
83 | O=c1[nH]c(-c2nccnc2Nc2ccc(C(F)(F)F)cc2)no1

target: T4, Transcriptional enhancer factor TEF-3; assay: Inhibition of pSF-CMV-P-FLAG tagged human TEAD4 palmitoylation transfected in HEK293 cells at 10 uM incubated for 6 hrs by Western blot analysis relative to control; format: cell-based; settings: not given

inhibition [%] | SMILES
93 | C[C@H](NC(=O)c1ccc2c(-c3ccc(C(F)(F)F)cc3)cccc2c1)c1cccc(N)n1
93 | C[C@H](NC(=O)c1ccc2c(-c3ccc(C(F)(F)F)cc3)cccc2c1)c1ccccn1
88 | Cc1nccnc1-c1nn2c(=O)cc(-c3ccc(C4CCCCC4)cc3)[nH]c2c1C(=O)N1CC(CF)C1
66 | C[C@@H](NC(=O)c1ccc2c(-c3ccc(C(F)(F)F)cc3)cccc2c1)c1cccc(N)n1
91 | O=c1[nH]c(-c2nccnc2Nc2ccc(C(F)(F)F)cc2)no1

target: T1, Transcriptional enhancer factor TEF-1; assay: Binding affinity to human TEAD1 (209 to 426 residues) expressed in Escherichia coli BL21 Star (DE3) assessed as change in melting temperature incubated for 2 hrs by measuring scattering fluorescence by Nano Differential scanning fluorometry; settings: not given

ΔTm [°C] | SMILES
7.6 | Cc1nccnc1-c1nn2c(=O)cc(-c3ccc(C4CCCCC4)cc3)[nH]c2c1C(=O)N1CC(CF)C1

target: T2, Transcriptional enhancer factor TEF-4; assay: Binding affinity to human TEAD2 (217 to 447 residues) expressed in Escherichia coli BL21 Star (DE3) assessed as change in melting temperature incubated for 2 hrs measuring scattering fluorescence by Nano Differential scanning fluorometry; settings: not given

ΔTm [°C] | SMILES
9.5 | Cc1nccnc1-c1nn2c(=O)cc(-c3ccc(C4CCCCC4)cc3)[nH]c2c1C(=O)N1CC(CF)C1

target: T3, Transcriptional enhancer factor TEF-5; assay: Binding affinity to human TEAD3 (216 to 435 residues) expressed in Escherichia coli BL21 Star (DE3) assessed as change in melting temperature incubated for 2 hrs by measuring scattering fluorescence by Nano Differential scanning fluorometry; settings: not given

ΔTm [°C] | SMILES
6.9 | Cc1nccnc1-c1nn2c(=O)cc(-c3ccc(C4CCCCC4)cc3)[nH]c2c1C(=O)N1CC(CF)C1
